The ED50 is the dose that gives a 50% effect, or the effect in half of the subjects.

Drawing on EP0015615A1, “Phenyl piperazine derivatives, their preparation and antiagressive medicines containing them” (DUPHAR INTERNATIONAL RESEARCH B.V, priority 1979, dated 1980), this text covers ED50 for 18 compounds.

The subject of the test is fighting behaviour of isolated mice. The test is described as follows: test on antiagressive activity in isolated mice. Type of test: in vivo. As to conditions: Mus musculus, po, 1 h; male albino mice kept isolated for 4 weeks; administered orally; fighting behaviour evaluated sixty minutes after administration; 5 mice per dose. The procedure:
The ED50-values mentioned in the table were determined in a test on antiagressive activity in isolated mice (Advances in Pharmacol. 5, (1967), 79). In this test, male albino mice were kept isolated for a period of 4 weeks and then selected for the test on the basis of fighting behaviour present. The selection criterion is the occurrence of 3 or more fighting periods within 3 minutes after a mouse which has not been kept isolated has been placed in the cage of the mouse kept isolated. The compounds to be investigated were administered orally to the selected mice. Per dose 5 mice were used. Sixty minutes after the administration of the compound to be investigated the animals were evaluated again for fighting behaviour. […] The ED50-value in mg of active substance per kg of body weight was calculated from the results obtained.

The structures appear in SMILES notation.

In turn, `NC(=O)NC(=O)NCCN1CCN(c2cccc(C(F)(F)F)c2)CC1` [1 [-2-(N-allophanoylamino)ethyl]-4-(3-trifluoromethylphenyl)piperazine] registered a median effective dose (ED50) of 1.5 mg/kg.

`CCN(CCN1CCN(c2cccc(C(F)(F)F)c2)CC1)C(C)=O` [R4=CH3, R5=C2H5, R6=3-CF3, T=O, m=0, p=2, 1-[2-(N-acetyl-N-ethylamino)ethyl]-4-(3-trifluoromethylphenyl) piperazine] had an ED50 of 3.2 mg/kg.

`CC(=O)N(C)CCN1CCN(c2cccc(C(F)(F)F)c2)CC1.Cl` [R4=CH3, R5=CH3, R6=3-CF3, T=O, m=0, p=2, 1-[2-(N-acetyl-N-methylamino)ethyl]-4-(3-trifluoromethylphenyl) piperazine hydrochloride (1:1)] showed an ED50 of 0.9 mg/kg. For `CC(=O)NCCN1CCN(c2cccc(Br)c2)CC1` [R4=CH3, R5=H, R6=3-Br, T=O, m=0, p=2, 1-[2-(N-acetylamino)ethyl]-4-(3-bromophenyl)piperazine] the value was 2.6 mg/kg; for `CC(=O)NCCN1CCN(c2cccc(C(F)(F)F)c2)CC1` [R4=CH3, R5=H, R6=3-CF3, T=O, m=0, p=2, 1-[2-(N-acetylamino)ethyl]-4-(3-trifluoromethylphenyl)piperazine], 0.7 mg/kg. Consider `CC(=O)NCC[N+]1([O-])CCN(c2cccc(C(F)(F)F)c2)CC1` [R4=CH3, R5=H, R6=3-CF3, T=O, m=1, p=2, 1-[2-(N-acetylamino)ethyl]-4-(3-trifluoromethylphenyl)piperazine 1-oxide], for which the ED50 was determined as 1.5 mg/kg. Take `CC(=S)NCCN1CCN(c2cccc(C(F)(F)F)c2)CC1.Cl` [R4=CH3, R5=H, R6=3-CF3, T=S, m=0, p=2, 1-[2-(N-thioacetylamino)ethyl]-4-(3-trifluoromethylphenyl)piperazine hydrochloride]: the 50% effect level (ED50) was put at a dose of 1.6 mg/kg. On to `CC(=O)NCCN1CCN(c2cccc(Cl)c2)CC1` [R4=CH3, R5=H, R6=3-Cl, T=O, m=0, p=2, 1-[2-(N-acetylamino)ethyl]-4-(3-chlorophenyl)piperazine], for which the ED50 is 1.8 mg/kg. This ED50 and that of the compound before are within 1.5-fold of each other. In turn, `COC(=O)NCCN1CCN(c2cccc(C(F)(F)F)c2)CC1.Cl` [R4=CH3O, R5=H, R6=3-CF3, T=O, m=0, p=2, 1-[2-(N-methoxycarbonylamino)ethyl]-4-(3-trifluoromethylphenyl) piperazine hydrochloride] registered an ED50 of 0.6 mg/kg. Compound `COC(=O)NCCN1CCN(c2cccc(Cl)c2)CC1.Cl.Cl` [R4=CH3O, R5=H, R6=3-Cl, T=O, m=0, p=2, 1-[2-(N-methoxycarbonylamino)ethyl]-4-(3-chlorophenyl)piperazine dihydrochloride] displayed an ED50 of 3.5 mg/kg.

`Cl.O=CNCCN1CCN(c2cccc(C(F)(F)F)c2)CC1` [R4=H, R5=H, R6=3-CF3, T=O, m=0, p=2, 1-[2-(N-formylamino)ethyl] -4-(3-trifluoromethylphenyl)piperazine hydrochloride] returned a 50% effective dose (ED50) of 1.7 mg/kg. Compound `O=CNCCN1CCN(c2cccc(Cl)c2)CC1` [R4=H, R5=H, R6=3-Cl, T=O, m=0, p=2, 1-[2-(N-formylamino)ethyl]-4-(3-chlorophenyl)piperazine] came in with an ED50 of 1.5 mg/kg. The ED50 values of the last two compounds are within 1.5-fold of each other. `NC(=O)NCCN1CCN(c2cccc(C(F)(F)F)c2)CC1` [R4=NH2, R5=H, R6=3-CF3, T=O, m=0, p=2, 1-[2-(N-aminocarbonylamino)ethyl]-4-(3-trifluoromethylphenyl) piperazine] yielded an ED50 of 1.3 mg/kg.

`NC(=O)NCC[N+]1([O-])CCN(c2cccc(C(F)(F)F)c2)CC1` [R4=NH2, R5=H, R6=3-CF3, T=O, m=1, p=2, 1-[2-(N-aminocarbonylamino)ethyl]-4-(3-trifluoromethylphenyl) piperazine 1-oxide] had a median effective dose (ED50) of 1.9 mg/kg. For `NC(=O)NCCN1CCN(c2cccc(Cl)c2)CC1` [R4=NH2, R5=H, R6=3-Cl, T=O, m=0, p=2, 1-[2-(N-aminocarbonylamino)ethyl]-4-(3-chlorophenyl)piperazine] the value was 2.3 mg/kg. The compound `NC(=O)NC(=O)NCCN1CCN(c2cccc(Cl)c2)CC1` [R4=NH2CONH, R5=H, R6=3-Cl, T=O, m=0, p=2] showed an ED50 of 2.3 mg/kg. For `CC(=O)NCCN1CCN(c2ccccc2)CC1` [US pat. spec. 2.722.529 ex.12, reference compound] the value was 15 mg/kg. For `CC(=O)NCCN1CCN(c2ccccc2Cl)CC1` [US pat. spec. 2.833.770, reference compound] the value was 18 mg/kg.
